Each structure is given as a SMILES string.

For one assay, the system named is rats. Description: Carrageenan-induced mechanical hyperalgesia (pain pressure threshold, Randall-Selitto). As to conditions: for Pain Threshold: mean ± SEM, rats; for Increase in pain threshold: vs control. The format is in vivo, Wistar rats. Here is the method: The acute and local inflammation and paw edema was induced by intraplantar (i.pl.) injection of 0.1 mL of 1% carrageenan solution in PBS into the rat’s right hind paw, according to the modified method of Winter and Lence, as described previously; (n = 84). The paw volume was measured using the dislocation of the water column of the plethysmometer (Type a, 7140; Plethysmometer, Ugo Basile, Gemonio, Italy) before (V0) and at 1, 2, and 3 h (V1, V2, V3) after i.pl. carrageenan injection. […] Vehicle (1% Tween 80) was administered by the same route as the tested compounds.
Furthermore, we performed the pain pressure threshold test to assess heightened sensitivity to mechanical stimuli. The experiment was conducted based on the method described by Randall and Selitto [58], with certain modifications. An analgesymeter (AnalgesyMeter 37215, Ugo Basile, Gemonio, Italy) was used to gradually apply increasing pressure (measured in grams) to the plantar surface of the right hind paw of the rat until paw withdrawal occurred. At this point, the intensity of the applied force (in grams) was recorded as the withdrawal threshold. The maximum force intensity was set at 250 g. Carrageenan induces a decrease in the nociceptive threshold in response to a mechanical stimulus, a condition referred to as hyperalgesia. For each rat, paw withdrawal thresholds were recorded both before (0 h) and 1, 2, and 3 h after carrageenan administration (i.e., 3.5 h after intraperitoneal pretreatment with the tested compounds). […] The analgesic effect of the tested compounds was assessed in comparison with the control group (1% Tween 80); the injection was performed intraperitoneally within 30 min of carrageenan administration. An analgesic effect occurs when the compound administered produces a pain response with greater pressure than the control group.

In assay [1] the test system is mice. Description: Glutamate-induced pain test. The class given is in vivo, Albino Swiss mice. As to conditions: vs vehicle. Here is the method: Prior to the experimental procedure, individual mice were acclimatized in an observation chamber (n = 128). Thirty minutes before the test, the compounds under investigation were administered intraperitoneally (i.p.). A volume of 20 μL of a glutamate solution, containing 30 μmol per mouse paw, was subcutaneously injected into the ventral surface of the right hind paw to induce a pain response. Glutamate-induced nociception was assessed 15 min post-injection. The duration of time spent licking the injected paw was recorded using a chronometer and was interpreted as an indicator of nociception.

Assay [2] concerns mice. Description: Formalin test. The format is in vivo, Albino Swiss mice. As to conditions: vs vehicle; for Reduction of pain reaction (licking duration), neurogenic phase: phase I (0–5 min); for Reduction of pain response, inflammatory phase: phase II (15–30 min). Here is the method:
The pain reaction was induced by intraplantar (i.pl.) injection of 20 μL of 2.5% formalin solution into the right hind paw of the mouse (n = 136). […] Time (in seconds) spent on licking or biting the injected hind paw in selected intervals, 0–5 min (neurogenic phase) and 15–30 min (inflammatory phase), was measured in each group and was an indicator of nociceptive behavior. The procedure was based on the method described by with some modifications by.

The test system of assay [3] is mice. Description: Streptozotocin-induced diabetic neuropathy, von Frey test (tactile allodynia). As to conditions: diabetic (STZ) mice, 10 mg/kg i.p.; for Pain threshold after compound administration (von Frey): 30 min before the test; for Analgesic activity (von Frey): vs pre-drug threshold. The format is in vivo, Albino Swiss mice. On the procedure:
The induction of diabetes neuropathy in mice was achieved through the administration of streptozotocin (STZ), dissolved in PBS at a dose of 200 mg/kg in a constant volume of 0.1 mL/10 g of mouse body weight, intraperitoneally; (n = 50). Blood glucose levels were measured immediately prior to the administration of streptozotocin and 14 and 21 days following this administration in order to confirm the presence of hyperglycemia. For this purpose, 5 µL of blood was drawn from the tail vein of the mice using a strip glucose meter (AccuChek Active, Roche, Boulogne-Billancourt, France).
Furthermore, to assess the response to mechanical stimuli (i.e., tactile/mechanical) allodynia), the von Frey test was carried out with application of the electronic von Frey unit (Panlab, Cornellà de Llobregat, Spain) equipped with a fiber, the distal end of which was applied to the right hind paw of the mouse. The device automatically recorded the pressure force (in grams) applied until the paw withdrawal response occurred. In the absence of pain, an increase in the pressure value was observed. The force at which the animal withdrew its paw was considered the pain threshold for the mechanical stimulus. Measurements were taken before streptozotocin administration (in normoglycemic mice) and again 21 days later, both before and after compound administration, in diabetic mice (glucose level > 300 mg/dL) that had developed mechanical allodynia. On the day of the experiment, each mouse was placed in an observation chamber with a wire mesh bottom and was allowed to habituate for 1 h. After the habituation period, in order to obtain baseline values, each mouse was tested 3 times alternately in each hind paw, allowing at least 30 s between each measurement. Then, the mice were pretreated intraperitoneally with compound or vehicle, and 30 min later the animals were tested again and three measurements were taken, the mean of which was calculated to obtain the mean values after drug administration for each mouse. The anti-allodynic effect was defined as an increase in the pressure force value required to elicit a pain response, compared to the control group.

[4] abbreviates: 10 mg/kg i.p., 0 h (before carrageenan).
[5] abbreviates: 10 mg/kg i.p., 1 h after carrageenan.
Setting [6] is: 10 mg/kg i.p., 2 h after carrageenan.
Where [7] appears, read: 10 mg/kg i.p., 3 h after carrageenan.
Where [8] appears, read: 20 mg/kg i.p., 0 h (before carrageenan).
Setting [9] is: 20 mg/kg i.p., 1 h after carrageenan.
The mark [10] stands for this setting: 20 mg/kg i.p., 2 h after carrageenan.
Setting [11] is: 20 mg/kg i.p., 3 h after carrageenan.

For `O=C1c2ccccc2C(=O)N1CC(O)CN1CCN(c2ccccc2)CC1` (stereo not drawn) [Compound F1], the “Pain Threshold” value in the assay with rats (setting [4]) was found to be 128.3 ± 1.1 g; with rats (setting [5]), 138.3 ± 2.1 g; with rats (setting [6]), 142.5 ± 2.1 g; in the assay on rats (setting [7]), 134.2 ± 2.1 g; in the assay with rats (setting [8]), 130.0 ± 2.9 g; in the assay on rats (setting [9]), 143.3 ± 2.5 g. The “Pain Threshold” value in the assay with rats (setting [10]) amounted to 148.3 ± 2.8 g; in the assay on rats (setting [11]), 146.7 ± 1.1 g. Further, the “Increase in pain threshold” value is 16% in the assay on rats (10 mg/kg, 1 h); 19.5% in the assay with rats (10 mg/kg, 2 h); 14.2% with rats (10 mg/kg, 3 h); 20.2% in the assay on rats (20 mg/kg, 1 h); 24.4% in the assay with rats (20 mg/kg, 2 h); 25% with rats (20 mg/kg, 3 h). For the same compound, the “Reduction of glutamate-induced pain reaction” value in the assay on mice [1] (5 mg/kg i.p.) is 41.3%; in the assay on mice [1] (10 mg/kg i.p.), 82.3%; in the assay with mice [1] (20 mg/kg i.p.) it was 87.2%. Further, the “Reduction of pain reaction (licking duration), neurogenic phase” value (“Reduction of pain reaction” for short) in the assay with mice [2] (5 mg/kg i.p.) is recorded as “did not attenuate the nociceptive response”; with mice [2] (10 mg/kg i.p.) it was 44.9%; with mice [2] (20 mg/kg i.p.), 62.7%. Moreover, the “Reduction of pain response, inflammatory phase” value (shortened to “Reduction of pain response”) in the assay on mice [2] (5 mg/kg i.p.) came out at 37%; in the assay with mice [2] (10 mg/kg i.p.), 66%; in the assay on mice [2] (20 mg/kg i.p.), 90%. The “Pain threshold after compound administration (von Frey)” value (shortened to “Pain threshold … (von Frey)”) in the assay with mice [3] came to 4.28 ± 0.32 g. Further, the “Analgesic activity (von Frey)” value in the assay on mice [3] is listed as 48.6%.
Consider `COc1ccccc1N1CCN(CC(O)CN2C(=O)c3ccccc3C2=O)CC1` (stereo not drawn) [Compound F2], for which the “Pain Threshold” value is 132.5 ± 2.1 g in the assay with rats (setting [4]); 127.5 ± 1.5 ns g in the assay with rats (setting [6]); 130 ± 2.6 ns g in the assay on rats (setting [7]); 132.5 ± 2.8 g with rats (setting [8]); 147.5 ± 2.5 g with rats (setting [9]); 141.7 ± 1.7 g with rats (setting [10]). The “Pain Threshold” value in the assay on rats (setting [11]) stood at 139.2 ± 0.8 g. Further, the “Effect on pain threshold (in words)” value in the assay with rats (10 mg/kg, over 1–3 h) is recorded as “lack of analgesic activity”. The “Increase in pain threshold” value was found to be 10% in the assay with rats (20 mg/kg, 1 h); 14% in the assay on rats (20 mg/kg, 2 h); 11.3% in the assay on rats (20 mg/kg, 3 h). Besides, the entries for the “Reduction of glutamate-induced pain reaction” value with mice [1] (5 mg/kg i.p.), with mice [1] (10 mg/kg i.p.) and in the assay with mice [1] (20 mg/kg i.p.) were 54.3%, 62.9% and 68.7%, respectively. The figures for the “Reduction of pain reaction” value in the assay with mice [2] (5 mg/kg i.p.), in the assay on mice [2] (10 mg/kg i.p.) and in the assay with mice [2] (20 mg/kg i.p.) were “did not attenuate the nociceptive response”, 44.6% and 53%, respectively. Moreover, the “Reduction of pain response” value is reported as 51% with mice [2] (5 mg/kg i.p.), 73% with mice [2] (10 mg/kg i.p.) and 87% with mice [2] (20 mg/kg i.p.). In addition, the “Pain threshold … (von Frey)” value in the assay on mice [3] was determined as 4.58 ± 0.29 g. Also, the “Analgesic activity (von Frey)” value in the assay with mice [3] is reported as 39.4%.
For the compound `O=C1c2ccccc2C(=O)N1CC(O)CN1CCN(c2cccc(C(F)(F)F)c2)CC1` (stereo not drawn) [Compound F3], the “Pain Threshold” value in the assay on rats (setting [4]) amounted to 134.2 ± 2.4 g; with rats (setting [5]), 141.7 ± 1.7 g; in the assay with rats (setting [6]), 142.5 ± 2.1 g; in the assay with rats (setting [7]) it was 137.5 ± 1.7 g; in the assay with rats (setting [8]) it was 135.8 ± 1.5 g; in the assay with rats (setting [9]), 148.3 ± 3.3 g. Moreover, the “Pain Threshold” value in the assay on rats (setting [10]) came out at 150.8 ± 3.9 g; with rats (setting [11]), 148.3 ± 3.1 g. Besides, the “Increase in pain threshold” value in the assay with rats (10 mg/kg, 1 h) stood at 7%; in the assay with rats (10 mg/kg, 2 h), 12.5%; with rats (10 mg/kg, 3 h), 10%; with rats (20 mg/kg, 1 h), 11.9%; in the assay on rats (20 mg/kg, 2 h), 19%; in the assay with rats (20 mg/kg, 3 h), 18.6%. In addition, the entries for the “Reduction of glutamate-induced pain reaction” value in the assay with mice [1] (10 mg/kg i.p.) and in the assay on mice [1] (20 mg/kg i.p.) were 61% and 70%, respectively. Further, the “Reduction of pain reaction” value is listed as “did not attenuate the nociceptive response” in the assay with mice [2] (5 mg/kg i.p.), “did not attenuate the nociceptive response” with mice [2] (10 mg/kg i.p.) and 41.6% in the assay on mice [2] (20 mg/kg i.p.). The “Reduction of pain response” value in the assay with mice [2] (5 mg/kg i.p.) stood at 34.5%; in the assay with mice [2] (10 mg/kg i.p.), 57.5%; in the assay with mice [2] (20 mg/kg i.p.), 80.9%. Further, in the assay on mice [3], the “Pain threshold … (von Frey)” value was found to be 5.21 ± 0.32 g. The “Analgesic activity (von Frey)” value in the assay with mice [3] is reported as 81.13%.
As for `O=C1c2ccccc2C(=O)N1CC(O)CN1CCN(C(c2ccccc2)c2ccccc2)CC1` (stereo not drawn) [Compound F4], the “Pain Threshold” value was 131.7 ± 1.7 g in the assay with rats (setting [4]); 139.2 ± 2.0 g in the assay with rats (setting [5]); 141.7 ± 1.7 g with rats (setting [6]); 139.2 ± 1.2 g with rats (setting [7]); 134.2 ± 1.5 g in the assay with rats (setting [8]); 144.2 ± 0.8 g with rats (setting [9]). In addition, the “Pain Threshold” value worked out at 145 ± 1.5 g in the assay on rats (setting [10]) and 140.8 ± 0.8 g in the assay on rats (setting [11]). Also, the “Increase in pain threshold” value with rats (10 mg/kg, 1 h) was 10.5%; in the assay on rats (10 mg/kg, 2 h), 13.4%; in the assay on rats (10 mg/kg, 3 h), 12.9%; in the assay with rats (20 mg/kg, 1 h), 14.4%; with rats (20 mg/kg, 2 h), 16%; in the assay on rats (20 mg/kg, 3 h), 14.2%. In addition, the “Reduction of glutamate-induced pain reaction” value in the assay with mice [1] (20 mg/kg i.p.) turned out to be 53.7%. For the same compound, the entries for the “Reduction of pain reaction” value in the assay with mice [2] (5 mg/kg i.p.), in the assay on mice [2] (10 mg/kg i.p.) and in the assay with mice [2] (20 mg/kg i.p.) were “did not attenuate the nociceptive response”, “did not attenuate the nociceptive response” and 48.3%, respectively. For the same compound, the “Reduction of pain response” value in the assay on mice [2] (10 mg/kg i.p.) was found to be 29.5%; in the assay on mice [2] (20 mg/kg i.p.) it was 42%. Also, the “Pain threshold … (von Frey)” value with mice [3] turned out to be 3.98 ± 0.23 g. Besides, the “Analgesic activity (von Frey)” value in the assay on mice [3] came to 38.29%.

The values above are taken from article PMC12249711, “Comprehensive Evaluation of 1H-Isoindole-1,3(2H)-Dione Derivatives: Pharmacokinetic Studies and Analgesic Potential in Various Pain Models” (International Journal of Molecular Sciences, 2025).
